Experimental data as given in ChEMBL document CHEMBL1201862, “PubChem BioAssay data set” (2004).
Calls of active or inactive are those of the source. Rule as the data show it, for most assays here: actives have a measured EC50 and inactives only a lower limit.

What was measured:
cells = type: functional, cell-based
[1] = inhibitors of intracellular T. cruzi replication, confirmation, NIH3T3 host cells, beta-gal luminescence (AID 2044); type: functional, cell-based;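 also: intracellular parasites grown in NIH/3T3 mouse fibroblasts as host cells; luminescent beta-galactosidase reporter signal from transgenic T. cruzi replicating inside host cells; inhibitors lower the luminescence signal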
[2] = cytotoxicity toward NIH3T3 fibroblasts, dose response, counter-screen, cell-based, ATP luminescence, mouse fibroblasts (AID 2010); type: functional;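 also: cells exposed to compound for about 90 hours before reading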
Jurkat = test: SAR Analysis of small molecule inhibitors of T-cell specific antigen receptor-induced NF-kB activation in a Jurkat cell line using a luminescence assay - Set 2. [Related pubchem assays (depositor defined):AID435003, AID435012, AID465]; type: functional, cell-based; conditions: Homo sapiens
HEK293 = test: SAR Analysis of small molecule inhibitors of T-cell specific antigen receptor-induced NF-kB activation in a HEK-293T cell line using a luminescence assay - Set 2. [Related pubchem assays (depositor defined):AID435003, AID435012, AID489026]; type: functional, cell-based; conditions: Homo sapiens
[3] = biological target: Eukaryotic translation initiation factor 4E (Mus musculus, UniProt P63073); test: eIF4E–eIF4G protein interaction inhibitors, dose response, biochemical, TR-FRET (AID 855); type: functional;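 also: potency for disrupting eIF4E binding to eIF4GI seen as loss of FRET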
[4] = system: Streptococcus sp. 'group A'; test: growth inhibition of control SK(-) GAS strain, dose response, counter-screen for streptokinase expression inhibitor project, luminescence, kanamycin, BacTiterGlo, confirmation (AID 1900); type: functional, organism-based

Sequence of Eukaryotic translation initiation factor 4E (P63073 whole entry): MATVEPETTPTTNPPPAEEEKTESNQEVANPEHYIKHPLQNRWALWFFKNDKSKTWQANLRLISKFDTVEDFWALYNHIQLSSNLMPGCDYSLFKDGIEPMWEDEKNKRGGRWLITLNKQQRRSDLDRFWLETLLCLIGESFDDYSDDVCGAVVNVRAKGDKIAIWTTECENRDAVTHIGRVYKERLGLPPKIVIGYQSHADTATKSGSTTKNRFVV

| SMILES | EC50 (cells) | EC50 [1] | EC50 [2] | IC50 (Jurkat) | IC50 (HEK293) | IC50 [3] | EC50 [4] |
| --- | --- | --- | --- | --- | --- | --- | --- |
| CCC(=O)NC(c1ccc(C)cc1)c1ccc2cccnc2c1O (stereo unspecified) | 4.3 µM (active) | 0.481 µM (active) | 0.687 µM (active) | 3.26 µM (active) | 7.02 µM (active) |  |  |
| N/C(=N\N=C/c1ccc(-c2ccc(O)c(C(=O)O)c2)o1)N[N+](=O)[O-] |  |  |  |  |  | 63.6 µM (inactive) |  |
| CCCC(=O)NC(c1ccc(Cl)cc1)c1ccc2cccnc2c1O (stereo unspecified) | 5.77 µM (active) | 0.226 µM (active) | 0.425 µM (active) | 2.84 µM (active) | 4.23 µM (active) |  | 2.17 µM (active) |
| Cc1ccc(-n2sc3ccccc3c2=O)cc1 |  | 0.361 µM (active) | 9.71 µM (active) |  |  | 15.2 µM (active) | 1.02 µM (active) |
